According to patent publication US20090281049A1, “New use of ginsenoside compound-k in manufacturing medicaments” (priority 2006, published 2009):

System: carrageenan-induced acute inflammation in mice
Assay: Carrageenan-induced paw edema in mice
Format: in vivo, Kunming mice

CC(C)=CCC[C@](C)(O[C@@H]1O[C@H](CO)[C@@H](O)[C@H](O)[C@H]1O)[C@H]1CC[C@]2(C)[C@@H]1[C@H](O)C[C@@H]1[C@@]3(C)CC[C@H](O)C(C)(C)[C@@H]3CC[C@]12C [Ginsenoside Compound-K, ginsenoside Compound-K]
swell value (2.5 mg/kg iv, 0 h): 1.49 ± 0.15 mL
inhibition rate (2.5 mg/kg iv, 1 h): <14.70> %
swell rate (2.5 mg/kg iv, 1 h): (66.63 ± 7.82) %
swell value (2.5 mg/kg iv, 1 h): 2.36 ± 0.22 mL
inhibition rate (2.5 mg/kg iv, 2 h): <12.30> %
swell rate (2.5 mg/kg iv, 2 h): (64.26 ± 14.54) %
swell value (2.5 mg/kg iv, 2 h): 2.43 ± 0.23 mL
inhibition rate (2.5 mg/kg iv, 4 h): <29.40> %
swell rate (2.5 mg/kg iv, 4 h): (61.75 ± 11.27) %
swell value (2.5 mg/kg iv, 4 h): 2.33 ± 0.17 mL
inhibition rate (2.5 mg/kg iv, 6 h): <31.64> %
swell rate (2.5 mg/kg iv, 6 h): (53.48 ± 11.12) %
swell value (2.5 mg/kg iv, 6 h): 2.22 ± 0.15 mL
swell value (5 mg/kg iv, 0 h): 1.47 ± 0.13 mL
inhibition rate (5 mg/kg iv, 1 h): <11.33> %
swell rate (5 mg/kg iv, 1 h): (60.97 ± 18.09) %
swell value (5 mg/kg iv, 1 h): 2.36 ± 0.23 mL
inhibition rate (5 mg/kg iv, 2 h): <16.08> %
swell rate (5 mg/kg iv, 2 h): (60.97 ± 18.41) %
swell value (5 mg/kg iv, 2 h): 2.35 ± 0.16 mL
inhibition rate (5 mg/kg iv, 4 h): <44.03> %
swell rate (5 mg/kg iv, 4 h): (45.04 ± 18.30) %
swell value (5 mg/kg iv, 4 h): 2.12 ± 0.22 mL
inhibition rate (5 mg/kg iv, 6 h): <31.98> %
swell rate (5 mg/kg iv, 6 h): (49.81 ± 17.26) %
swell value (5 mg/kg iv, 6 h): 2.19 ± 0.19 mL
swell value (10 mg/kg iv, 0 h): 1.56 ± 0.17 mL
inhibition rate (10 mg/kg iv, 1 h): <40.64> %
swell rate (10 mg/kg iv, 1 h): (40.81 ± 10.14) %
swell value (10 mg/kg iv, 1 h): 2.18 ± 0.18 mL
inhibition rate (10 mg/kg iv, 2 h): <42.79> %
swell rate (10 mg/kg iv, 2 h): (41.56 ± 13.38) %
swell value (10 mg/kg iv, 2 h): 2.19 ± 0.20 mL
inhibition rate (10 mg/kg iv, 4 h): <65.66> %
swell rate (10 mg/kg iv, 4 h): (27.64 ± 8.46) %
swell value (10 mg/kg iv, 4 h): 1.98 ± 0.20 mL
inhibition rate (10 mg/kg iv, 6 h): <67.80> %
swell rate (10 mg/kg iv, 6 h): (23.58 ± 15.23) %
swell value (10 mg/kg iv, 6 h): 1.91 ± 0.22 mL
overall effect on carrageenan-induced acute inflammation (mice, 10, 5, 2.5 mg/kg iv): able to inhibit carrageenan-induced acute inflammation in mice obviously
